Test results reported in patent US6887894B2, “Use of lipoic acid for improving the bioavailability of mineral salts” (BASF Aktiengesellschaft, priority 2000, dated 2005).
Marks after values point to notes of the source that are not given here.

Key:
Type in all cases: in vivo
[1] = Study 1/Study 2: bioavailability of Zn lipoate and ZnSO4 in rats (Example 4, Comparison Example 1); settings: diet with 0.4% NaPA, high dose 20 mg Zn/kg of feed, 28 days
Protocol: Male Albino rats (Wistar) of an initial weight of 40 g were used. The animals were kept during each 28-day experimental period at a room temperature of 22° C., a relative humidity of approximately 55% and in a 12-hour light-dark cycle. The rats were housed individually in Makrolon cages with stainless steel bottoms which permitted controlled feed intake and quantitative collection of feces and urine. The feed was provided once a day at 8^00. The live mass of the rats was determined weekly, feces and urine were collected every day at 10^00 and 17^00. At the end of the experiment, the rats were decapitated after chloroform anesthesia. • 4.2 Description of the diets and experimental design
6 rats are used per experimental group. The mealy diets were administered ad lib. […] The control group (group 1) received the PA-free base diet.
The amounts of feces and urine produced separately in the metabolic cages are collected quantitatively every day and stored at −22° C. To avoid any losses of N in the urine collection vessels, 1 ml of 20% strength HCl (Suprapur) is added to each of the vessels daily. For further analysis, the sample material is freeze-dried for 48 h. • 4.3.2 Organ and tissue samples
The right femur, liver and testes are removed immediately after decapitation and complete exsanguination of the animals and the fresh mass is determined. The samples are sealed in plastic film and stored at −22° C. until further analysis. • 4.3.3 Blood
The rats are decapitated at the end of the experiment after complete narcosis with chloroform and the blood collected in heparinized plastic tubes. 40 I.U. of heparin sodium are introduced per ml of blood. […]
Zinc is determined by means of atomic absorption spectrophotometry (AAS) in an acetylene flame. • 4.5 Diagnosis of zinc status • 4.5.1 Determination of the plasma zinc concentration
The plasma zinc concentration is measured directly in the flame by means of AAS (Philips, PIJ 9400). […]
The enzyme activity is measured kinetically on a semimicroscale at a wavelength of 405 nm and 25° C. using a UV spectrophotometer. […]

[2] = Study 3: zootechnical parameters (feed intake, live weight) of growing rats; settings: for LW Gain: 28 days; for Live weight d0: initial weight
Protocol: (§1) 36 male Wistar albino rats (Harlan Winkelmann, Borchen) having an initial weight of 47.0±2.63 g were randomly divided into 6 groups each of 6 animals and fed the diets specified in Table 7 (experimental design) and Section 5.2 over a period of 28 days. The animals were kept individually in Makrolon cages on stainless grids under standard conditions (22° C., 55% relative humidity, 12 hour light/dark rhythm). Feed and deionized drinking water were available to the experimental animals ad libitum. During the 2nd and 3rd experimental week (metabolism phase) feces were collected quantitatively. After completion of the experimental phase (day 28), the animals were decapitated under CO2— anesthesia, exsanguinated and the tissue to be analyzed was removed. Groups Ib, IIb and IIIb here are Example 5, while Groups Ia, IIa and IIIa are Comparison Example 2.
Parameters used to estimate Zn availability were the zootechnical parameters feed intake, live weight development and live weight increase, apparent Zn absorption, alkaline phosphatase activity in plasma, plasma and femur Zn concentration and metallothionin concentration in liver tissue. • 5.2 Experimental diets
The experimental animals were fed semisynthetic diets based on high-purity components (corn starch, egg albumin protein, sucrose, soybean oil and cellulose) over a period of 28 days (see Table 8 for composition of the base diet), the experimental diets differing with respect to the type of zinc compound supplemented, the absolute Zn concentration and the phytic acid content (0.4% PA from NaPA, Sigma-Aldrich, Steinheim) (see Table 7).
Zn supplements used were Zn ((R)-α-Lipoat)2(H2O)2 from Example 1 (Example 5) and Zn sulfate (ZnSO4.7 H2O analytical grade, Merck, Darmstadt) (Comparison Example 2). The Zn concentrations of the experimental diets Ia-IIb were set at a level of 10 mg/kg of diet estimated to be marginal for growing rats, in order to enable investigation of the availability of the Zn supplements under test in the suboptimun supply range.

[3] = Study 3: Zn intake, fecal excretion and apparent absorption of zinc; settings: rats
Protocol: as §1
During the two-week metabolism phase, the rat feces were collected daily, adherent feed residues and other impurities were removed and the samples were stored at −20° C. At the end of the metabolism period the fecal weight was determined quantitatively and feces were then freeze-dried under vacuum over a period of 48 h (Gamma 1-20, Christ, Osterode). The dried samples were finely around using a domestic grinder (Moulinette electronic 89902) and stored at ambient temperature in PE bottles.
A sample aliquot of 1.5 g or the freeze-dried and ground fecal samples was dried for 24 h at 105° C. to remove residual water and then ashed in a muffle furnace at 450° C. for 21 h. The ash residue was dissolved by acid addition and then analyzed quantitatively. The Zn concentration in the fecal samples was determined by flame-AAS (Philips, PU 9400, Kassel). • 5.3.4 Diagnosis of Zn status
(§2) Zn absorption was calculated, without taking into account endogenous level as a difference between element […] and fecal excretion (=apparent absorption). Plasma Zn concentration was determined by AAS (Philips, PU 9400, Kassel). The samples were diluted with 0.1 M HCl in a ratio of 1:20 (v/v). The activity of the Zn metalloenzyme alkaline phosphatase (AP) (E.C. 3.1.3.1) wan assayed using the individual chemicals diethanolamine buffer and p-nitrophenyl phosphate according to the recommendations of the […] FÜR […] CHIMIE [German Clinical Chemistry Society] ([…] FÜR […] CHEMIE (1972). Standardmethode zur Bestimmung der Aktivität der alkalischen Phosphatase (AP) [Standard Method for Determining Alkaliur Phosphatase (AP) Activity]. Z. klin. Chem u. klin. Biochemie. 10, 191). • 5.3.5 Metallothionin in liver tissue

[4] = Study 3: Zn concentration in the femur; settings: rats, day 28
Protocol: as §1
The ash solutions were prepared by the principle of wet ashing. The sample material was admixed with 10 ml of 65% strength HNO3 (Merck, Suprapur) and then boiled under a reflux condenser in a digestion apparatus (Gerhardt SMA-20, Bonn). This oxidatively degraded the organic matrix and completely mineralized the test material. The Zn concentration was determined in the ash solutions by flame-AAS (Philips, PU 9400, Kassel). • 5.3.3 Analysis of the fecal samples

[5] = Study 3: plasma Zn concentration; settings: rats, day 28
Protocol: as §1
The samples were diluted with 0.1 M HCl in a ratio of 1:20 (v/v). […] CHIMIE [German Clinical Chemistry Society]

[6] = test system: alkaline phosphatase (AP) (E.C. 3.1.3.1); assay: Study 3: alkaline phosphatase activity in plasma; settings: rats, day 28
Protocol: as §1, §2

metallothionin = assay: Study 3: metallothionin in liver tissue; settings: rats, day 28
Protocol: as §1
Total MT concentration in liver tissue was determined using the cadmium-binding method of EATON and TOAL (EATON, D. L., TOAL, B. F. (1982): Evaluation of the cadmium/hemoglobin affinity assay for the rapid determination of metallothionein in biological tissues. Toxicol Appl. Pharmacol. 66, 134-142) in a modification tested at the Giessen Institute (LEUNERT, V. (1994): Einfluβ von Zink sowie fetalem Kälberserum, bovinem Serumalbumin und calciummobilisierenden Rezeptoragonlsten auf Metallothionein in primär kultivierten Rattenhepatocyten [Effect of zinc and fecal calf serum, vine serum albumin and calcium-immobilizing receptor agonists on metallothionin in primary cultivations of rat hepatocytes]. Inaugural dissertation at the Institut für Tierernahrung und Ernährungse-physiologie [Institute of Animal Nutrition and Nutritional Physiology] of the University of Cicesen, Verlag Shaker, Aachen, PALLAUF et al. 1995). The protein content in liver homogenates war determined using the Lowry-Folin method (DAWSON, R. M. C. ELLIOTT, D C; JONES, K. M. (1986): Data for biochemical research, 3rd ed., Clarendon Press, New York, 543). • 5.3.5. Statistical analysis

[7] = 10 ppm Zn, PA-free diet (group I)
[8] = 20 ppm Zn + 0.4% PA (group III)

Apparent absorption of Zn ([3]; 10 ppm Zn + 0.4% PA (group II)): 43.0 ^a %
Apparent absorption of Zn (absolute) ([3]; 10 ppm Zn + 0.4% PA (group II)): 0.351 ^a mg/14 d
Fecal excretion of Zn ([3]; 10 ppm Zn + 0.4% PA (group II)): 0.484 ^a mg/14 d
Apparent absorption of Zn [3, 7]: 76.4 ^b %
Apparent absorption of Zn (absolute) [3, 7]: 1.35 ^bc mg/14 d
Fecal excretion of Zn [3, 7]: 0.411 ^a mg/14 d
Apparent absorption of Zn [3, 8]: 43.9 ^a %
Apparent absorption of Zn (absolute) [3, 8]: 1.13 ^b mg/14 d
Fecal excretion of Zn [3, 8]: 1.43 ^b mg/14 d
Zn concentration in Femur ([4]; 10 ppm Zn + 0.4% PA (group II)): 36.3 ^a μg/g FW
Zn concentration in Femur [4, 7]: 81.4 ^c μg/g FW
Zn concentration in Femur [4, 8]: 55.4 ^b μg/g FW
Zn concentration in Plasma ([5]; 10 ppm Zn + 0.4% PA (group II)): 0.57 ^a μg/ml
Zn concentration in Plasma [5, 7]: 1.11 ^bc μg/ml
Zn concentration in Plasma [5, 8]: 0.80 ^ac μg/ml
SMILES: O.O.O.O.O.O.O.O=S(=O)([O-])[O-].[Zn+2] [Zn sulfate, ZnSO4.7 H2O]
zinc deficiency symptoms (anorexia, alopecia, depression of growth) [1]: still present
Feed intake Total ([2]; 10 ppm Zn + 0.4% PA (group II)): 166 ^a g/28d
Feed intake d1-d7 ([2]; 10 ppm Zn + 0.4% PA (group II)): 37.4 ^a g
Feed intake d8-d14 ([2]; 10 ppm Zn + 0.4% PA (group II)): 42.3 ^a g
Feed intake d15-d21 ([2]; 10 ppm Zn + 0.4% PA (group II)): 40.5 ^a g
Feed intake d22-d28 ([2]; 10 ppm Zn + 0.4% PA (group II)): 45.3 ^a g
Live weight d7 ([2]; 10 ppm Zn + 0.4% PA (group II)): 62.0^a g
Live weight d14 ([2]; 10 ppm Zn + 0.4% PA (group II)): 84.6^a g
Live weight d21 ([2]; 10 ppm Zn + 0.4% PA (group II)): 94.2^a g
Live weight d28 ([2]; 10 ppm Zn + 0.4% PA (group II)): 106.5^a g
LW Gain ([2]; 10 ppm Zn + 0.4% PA (group II)): 60.7^a g
Live weight d0 ([2]; 10 ppm Zn + 0.4% PA (group II)): 45.8 g
Feed intake Total [2, 7]: 272 ^b g/28d
Feed intake d1-d7 [2, 7]: 40.4 ^ab g
Feed intake d8-d14 [2, 7]: 67.8 ^bc g
Feed intake d15-d21 [2, 7]: 77.5 ^bc g
Feed intake d22-d28 [2, 7]: 86.6 ^b g
Live weight d7 [2, 7]: 58.1^ab g
Live weight d14 [2, 7]: 104.2^ab g
Live weight d21 [2, 7]: 141.3^bc g
Live weight d28 [2, 7]: 175.8^bc g
LW Gain [2, 7]: 128.5^bc g
Live weight d0 [2, 7]: 47.3 x g
Feed intake Total [2, 8]: 253 ^b g/28d
Feed intake d1-d7 [2, 8]: 49.6 ^ab g
Feed intake d8-d14 [2, 8]: 61.0 ^b g
Feed intake d15-d21 [2, 8]: 67.9 ^b g
Feed intake d22-d28 [2, 8]: 74.8 ^b g
Live weight d7 [2, 8]: 68.4^ab g
Live weight d14 [2, 8]: 102.4^ab g
Live weight d21 [2, 8]: 132.3^b g
Live weight d28 [2, 8]: 161.9^b g
LW Gain [2, 8]: 114.7^b g
Live weight d0 [2, 8]: 47.2 g
Alkaline Phosphatase activity in plasma ([6]; 10 ppm Zn + 0.4% PA (group II)): 216 ^a mU/ml Plasma
Alkaline Phosphatase activity in plasma [6, 7]: 383 ^b mU/ml Plasma
Alkaline Phosphatase activity in plasma [6, 8]: 347 ^b mU/ml Plasma
Metallothionin concentration in liver tissue (metallothionin; 10 ppm Zn + 0.4% PA (group II)): 6.36 ng MT/mg Protein
Metallothionin concentration in liver tissue (metallothionin; [7]): 8.08 ng MT/mg Protein
Metallothionin concentration in liver tissue (metallothionin; [8]): 7.58 ng MT/mg Protein
